The test system of one data set is L1210 leukemia. The data set is described as follows: Therapeutic effect (survival prolongation) on CDF1 mice bearing L1210 leukemia. In kind it is in vivo, mouse (CDF1 mice). As to conditions: for Survival prolongation rate (T/C %): L1210-bearing CDF1 mice, i.p. every day for 10 days, control = 100; for survival prolongation effect (in words): mice transplanted with leukemia cells. The protocol: The therapeutic effect of 2-hydroxyaclacinomycin B was studied on CDF1 mice bearing L1210 leukemia. From 24 hours after 1×10^5 L1210 cells/animal were intraperitoneally transplanted to CDF1 mice, 2-hydroxyaclacinomycin B was intraperitoneally given everyday for 10 days. The prolongation of the survival time was calculated relative to the control animals receiving physiological saline as 100. Table 1 compares the in vitro and in vivo activities and toxicities of 2-hydroxyaclacinomycins A, B, and N and aclacinomycin A.

In data set [1] the test system is mouse leukemia cells L1210. Kind of data set: Growth inhibition of cultured L1210 cells. It counts as cell-based. The following applies: for IC50: Mus musculus; for inhibition of growth and nucleic acid synthesis of L1210 cells (in words): mouse leukemia cells L1210. The protocol: For determination of the 50% growth inhibition concentration (IC50), 5×10^4 L1210 cells/ml (final concentration) were inoculated into RPMI 1640 medium (Rosewell Park Memorial Institutes 1640 medium) containing 20% calf serum. The anthracycline compounds of the present invention were added to give a final concentrations from 0.01 μg/ml to 0.25 μg/ml, while the control contained no drug. After incubation at 37° C. in a carbon dioxide incubator, the cell counts of the test and control cultures were measured for calculation of the IC50 concentration of antibiotic.

The test system of data set [2] is DNA synthesis in L1210 cells. The data set is described as follows: DNA synthesis inhibition in cultured L1210 cells (14C-thymidine incorporation). It counts as cell-based. The following applies: Mus musculus, 1 h, 60 minutes, 10% calf serum, 37° C., read-out: 50% Inhibition concentration (IC50), DNA synthesis inhibition. The protocol: (§1) Fifteen minutes after the anthracycline compounds of the present invention were added at varied concentrations, 0.05 μCi/ml (final concentration) of ^14 C-uridine or ^14 C-thymidine was added and cultivated at 37° C. for a further 60 minutes. The incorporation of the radioactive base was stopped by addition of 10% trichloroacetic acid. The acid-insoluble matters were recovered; washed three times with 10-5% trichloroacetic acid; and dissolved in formic acid.
(Incorporation of labelled thymidine or its analogues reports DNA synthesis.)

Data set [3] concerns RNA synthesis in L1210 cells. Kind of data set: RNA synthesis inhibition in cultured L1210 cells (14C-uridine incorporation). In kind it is cell-based, mouse. The following applies: for IC50: Mus musculus, 1 h, cultured L1210 cells, 14C-uridine, 60 minutes, 10% calf serum, 37° C., read-out: 50% Inhibition concentration (IC50), RNA synthesis inhibition. How it is done: as §1
The conditions of data set [4]: compared with aclacinomycin A; European Publication No. 30255; cited from earlier work.
For data set [5] the following is noted: cited from earlier work.
The test system of another data set is Mice. Kind of data set: Acute toxicity, mice, i.p.
Where [6] appears, read: cultured L1210 cells, RPMI 1640 with 20% calf serum, 37° C., read-out: 50% Inhibition concentration (IC50), growth inhibition.

≈ marks a conversion by molar mass, not a printed value. Where two headings read alike, the source gives them in different places.

Data on four molecules can be found in patent US4474945A, “Anthracycline antibiotics” (priority 1981, dated 1984).

For `CCC1(O)CC(OC2CC(N(C)C)C(OC3CC(O)C(OC4CCC(=O)C(C)O4)C(C)O3)C(C)O2)c2c(cc3c(c2O)C(=O)c2c(O)cc(O)cc2C3=O)C1C(=O)OC` (centres unmarked) [2-Hydroxyaclacinomycin A], the “Survival prolongation rate (T/C %)” value in the data set on L1210 leukemia (dose 0.63 mg/kg) worked out at 124%; in the data set with L1210 leukemia (dose 1.25 mg/kg), 148%; in the data set on L1210 leukemia (dose 2.5 mg/kg) it was 176%; in the data set with L1210 leukemia (dose 5 mg/kg) it was 218%; with L1210 leukemia (dose 7.5 mg/kg), 220%; with L1210 leukemia (dose 10 mg/kg) it was 158%. Further, in the data set with L1210 leukemia (dose 12 mg/kg), the “Survival prolongation rate (T/C %)” value is on record as 120%. Moreover, the “survival prolongation effect (in words)” value in the data set on L1210 leukemia is reported as “excellent survival prolongation effect”. Besides, the “killing of mouse leukemia cells L1210 (in words)” value (shortened to “killing”) in data set [1] is “kill mouse leukemia cells L1210 at a low concentration”. Also, the IC50 in data set [1] (setting [6]) is 0.04 µg/mL (≈ 0.0483 µM); in data set [2], 0.85 µg/mL (≈ 1.03 µM); in data set [3], 0.14 µg/mL (≈ 0.169 µM). Moreover, in data set [1], the “inhibition of growth and nucleic acid synthesis of L1210 cells (in words)” value (shortened to “inhibition … of L1210 cells (in words)”) is “markedly inhibit the growth and the nucleic acid synthesis”. In addition, the “RNA synthesis versus DNA synthesis inhibition (in words)” value in data set [3] is recorded as “inhibit RNA synthesis more specifically than DNA synthesis”. For the same molecule, the “antitumor activity (in words)” value in data set [4] was “stronger antitumor activity”. For the same molecule, in data set [5] (compared with aclacinomycin A, European Publication No. 30255), the “cardio-toxicity (in words)” value is given as “less cardio-toxic, than aclacinomycin A”. Besides, in the data set on Mice, the “Toxicity (acute)” value is 50.0.

Consider `CCC1(O)CC(OC2CC(N(C)C)C(OC3CC4OC5CC(=O)C(C)OC5OC4C(C)O3)C(C)O2)c2c(cc3c(c2O)C(=O)c2c(O)cc(O)cc2C3=O)C1C(=O)OC` (centres unmarked) [2-Hydroxyaclacinomycin B, 2-hydroxyaclacinomycin B], for which the “Survival prolongation rate (T/C %)” value in the data set on L1210 leukemia (dose 0.63 mg/kg) worked out at 110%; in the data set with L1210 leukemia (dose 1.25 mg/kg), 131%; with L1210 leukemia (dose 2.5 mg/kg), 153%; with L1210 leukemia (dose 5 mg/kg) it was 200%; in the data set with L1210 leukemia (dose 7.5 mg/kg) it was 226%; with L1210 leukemia (dose 10 mg/kg), 139%. The “Survival prolongation rate (T/C %)” value in the data set on L1210 leukemia (dose 12 mg/kg) was determined as 113%. The “survival prolongation effect (in words)” value in the data set on L1210 leukemia was “excellent survival prolongation effect”. Also, the “antitumor activity (in words)” value in the data set with L1210 leukemia (mouse, in vivo) is reported as “marked antitumor activity”. Moreover, in data set [1], the “killing” value is recorded as “kill mouse leukemia cells L1210 at a low concentration”. In addition, the IC50 in data set [1] (L1210, read-out: 50% Inhibition concentration (IC50), growth inhibition) is 0.03 µg/mL (≈ 0.0363 µM); in data set [2], 1 µg/mL (≈ 1.21 µM); in data set [3], 0.22 µg/mL (≈ 0.266 µM). Besides, the “inhibition … of L1210 cells (in words)” value in data set [1] was “markedly inhibit the growth and the nucleic acid synthesis”. The “RNA synthesis versus DNA synthesis inhibition (in words)” value in data set [3] is “inhibit RNA synthesis more specifically than DNA synthesis”. Further, the “Toxicity (acute)” value in the data set with Mice was found to be 50.0.

In the case of `CCC1(O)CC(OC2CC(N(C)C)C(OC3CC(O)C(OC4CCC(O)C(C)O4)C(C)O3)C(C)O2)c2c(cc3c(c2O)C(=O)c2c(O)cc(O)cc2C3=O)C1C(=O)OC` (centres unmarked) [2-Hydroxyaclacinomycin N, 2-hydroxyaclacinomycin N], the “Survival prolongation rate (T/C %)” value with L1210 leukemia (dose 0.63 mg/kg) is reported as 109%; in the data set on L1210 leukemia (dose 1.25 mg/kg), 128%; in the data set with L1210 leukemia (dose 2.5 mg/kg) it was 148%; in the data set on L1210 leukemia (dose 5 mg/kg), 202%; in the data set on L1210 leukemia (dose 7.5 mg/kg), 219%; in the data set with L1210 leukemia (dose 10 mg/kg), 144%. Also, in the data set with L1210 leukemia (dose 12 mg/kg), the “Survival prolongation rate (T/C %)” value is 108%. In the data set with L1210 leukemia, the “survival prolongation effect (in words)” value is listed as “excellent survival prolongation effect”. Further, in data set [1], the “killing” value was “kill mouse leukemia cells L1210 at a low concentration”. In addition, the IC50 in data set [1] (setting [6]) was found to be 0.04 µg/mL (≈ 0.0482 µM); in data set [2] it was 1.18 µg/mL (≈ 1.42 µM); in data set [3], 0.18 µg/mL (≈ 0.217 µM). The “inhibition … of L1210 cells (in words)” value in data set [1] was “markedly inhibit the growth and the nucleic acid synthesis”. Further, the “RNA synthesis versus DNA synthesis inhibition (in words)” value in data set [3] is recorded as “inhibit RNA synthesis more specifically than DNA synthesis”. Also, in the data set with Mice, the “Toxicity (acute)” value came to 45.7.

As to `CCC1(O)CC(OC2CC(N(C)C)C(OC3CC(O)C(OC4CCC(=O)C(C)O4)C(C)O3)C(C)O2)c2c(cc3c(c2O)C(=O)c2c(O)cccc2C3=O)C1C(=O)OC` (centres unmarked) [Aclacinomycin A, reference compound], the “Survival prolongation rate (T/C %)” value in the data set with L1210 leukemia (dose 0.63 mg/kg) was 107%; in the data set with L1210 leukemia (dose 1.25 mg/kg), 125%; in the data set with L1210 leukemia (dose 2.5 mg/kg) it was 186%; in the data set on L1210 leukemia (dose 5 mg/kg) it was 196%; with L1210 leukemia (dose 7.5 mg/kg), 123%; in the data set with L1210 leukemia (dose 10 mg/kg) it was “Toxic”. Besides, the IC50 in data set [1] (setting [6]) was determined as 0.01 µg/mL (≈ 0.0123 µM); in data set [2], 0.3 µg/mL (≈ 0.37 µM); in data set [3], 0.04 µg/mL (≈ 0.0493 µM). Further, in data set [5] (compared with hitherto-developed anthracycline antibiotics), the “toxicity and cardio-toxicity among hitherto-developed anthracycline antibiotics (in words)” value was “the least toxic and cardio-toxic among the hitherto-developed anthracycline antibiotics”. Also, the “Toxicity (acute)” value in the data set on Mice is reported as 22.6.
